# Results: patent US9368421B2, “Under-fill material and method for producing semiconductor device” (NITTO DENKO CORPORATION, priority 2011, dated 2016)
# Experiment: Acid dissociation constant pKa of flux agent
# Conditions: for pKa: dilute aqueous solution; for pKa1: first dissociation constant of a dicarboxylic acid
# Description: The pKa can be determined by measuring an acid dissociation constant Ka=[H3O][B^−]/[BH] under the condition of a dilute aqueous solution of the carboxyl group-containing compound and using the equation of pKa=−log Ka. Here, BH represents a carboxyl group-containing compound, and B^− represents a conjugate base of the carboxyl group-containing compound. The pKa can be measured in such a manner that a hydrogen ion concentration is measured using a pH meter, and the pKa is calculated from the concentration of a relevant substance and the hydrogen ion concentration.
compound,measurement,value
"O=C(O)CCCCCCC(=O)O [Octanedioic acid, octanedioic acid]",pKa,4.5
same,pKa1,4.5
O=C(O)C1CCCCC1C(=O)O (stereo not shown),pKa,4.4
same,pKa1,4.4
O=C(O)c1ccccc1-c1ccccc1 [2-phenylbenzoic acid],pKa,3.5
"O=C(O)CCCCCCCCCCC(=O)O [Dodecanedioic acid, dodecanedioic acid]",pKa,5
same,pKa1,5.0
"O=C(O)c1c(O)cccc1O [2,6-dihydroxybenzoic acid]",pKa,1.2
CN(C)c1ccc(C(=O)O)cc1 [p-dimethylaminobenzoic acid],pKa,4.9
O=C(O)c1ccccc1[N+](=O)[O-] [2-nitrobenzoic acid],pKa,2.5
